Where a SMILES comes first, the peptide text is derived from it. [ ]: non-standard residue; d: D form. The star is where a group is joined. Dolaproine = CO[C@@H]([C@@H]1CCCN1)[C@@H](C)C(=O)O; Dil = CC[C@H](C)[C@H](NC)[C@@H](CC(=O)O)OC; X1 = C[C@@H](N*)[C@@H](O)c1ccccc1; NMeV = CN[C@H](C(=O)O)C(C)C
Assay: Phase I/II dose-escalation study: plasma pharmacokinetics
Type: in vivo, human
Conditions: after tisotumab vedotin, cycle 1 and cycle 2, all dose cohorts (FIG. 4)
Method: A first-in-human phase I/II dose-escalating study following a 3+3 dose-escalation design was conducted in order to test the safety of tisotumab vedotin in 27 subjects with locally advanced and/or metastatic cancer of various types including cervical cancer (FIG. 2). Tisotumab vedotin was administered by intravenous infusion at doses ranging from 0.3 mg/kg to 2.2 mg/kg on day 1 of a 21-day cycle for four cycles (i.e., each treatment cycle was 3 weeks). Patients with stable disease (SD) or better at the end of four cycles had the option to continue treatment with tisotumab vedotin for eight additional cycles (FIG. 2). Tumor evaluations were performed by CT scans every six weeks. In order to qualify for SD, results of the CT scan scheduled for week six needed to be SD or better. Two CT scans were performed outside the per-protocol defined window.
A primary objective of the study was to assess the safety and tolerability in a mixed population of patients with specified solid tumors. Adverse event (AE) severity was graded according to Common Terminology Criteria for Adverse Events (CTCAE) version 4.03. Secondary objectives of the study included determining the pharmacokinetic (PK) profile of tisotumab vedotin and preliminary evaluation of anti-tumor activity as assessed according to Response Evaluation Criteria in Solid Tumors [RECIST] version 1.1. Dose-limiting toxicities (DLTs) were determined during the first cycle and were defined as grade≥3 events possibly related to tisotumab vedotin. […] Tumor biopsies were required at baseline for TF expression which was assessed by immunohistochemistry utilizing tisotumab. TF staining intensity was determined using the H-scoring system.
The geometric means (% CV) of the time to reach Cmax (Tmax)(hr), maximum concentration (Cmax)(ng/mL), and area under the concentration time curve (AUC)0-t (hr*ng/mL) was measured for the pharmacokinetics (PK) portion of the study (Table 3). Low levels of unconjugated MMAE were measured in systemic circulation (FIG. 4).

## CC[C@H](C)[C@@H]([C@@H](CC(=O)N1CCC[C@H]1[C@H](OC)[C@@H](C)C(=O)N[C@H](C)[C@@H](O)c1ccccc1)OC)N(C)C(=O)[C@@H](NC(=O)[C@@H](NC)C(C)C)C(C)C [MMAE, monomethyl auristatin E] (H-[NMeV]V[Dil][Dolaproine]-X1)
  unconjugated MMAE in systemic circulation: Low levels

— patent US20240252673A1, “ANTI-TISSUE FACTOR ANTIBODY-DRUG CONJUGATES AND THEIR USE IN THE TREATMENT OF CANCER” (priority 2017, published 2024)
